Measured values taken from the NIST ThermoML archive (doi:10.1021/je400894j).

Test: mn = molality of the nth substance listed, in mol/kg
Conditions: 101 kPa, Liquid, Falling or rolling sphere viscometry

O=C([O-])CC(O)(CC(=O)[O-])C(=O)[O-].[Na+].[Na+].[Na+] [trisodium citrate] + O
viscosity [mPa·s]
Conditions | 288.15 K | 298.15 K | 308.15 K | 318.15 K
m1 = 0.2 | 1.343 | 1.056 | 0.858 | 0.719
m1 = 0.4 | 1.661 | 1.296 | 1.047 | 0.868
m1 = 0.6 | 2.072 | 1.592 | 1.277 | 1.049
m1 = 0.8 | 2.633 | 2.002 | 1.581 | 1.287
